The term CC50 denotes the concentration giving 50% cytotoxicity. For orientation: IC50 means the midpoint of a concentration-inhibition curve. In general, inhibition refers to the drop in the measured response relative to a control, in per cent.

Converted amounts (≈) assume the structure as drawn. A value given as a limit tells only on which side of the number the result lay.

This is an account of results in ChEMBL document CHEMBL2331164, “Aspulvinones from a mangrove rhizosphere soil-derived fungus Aspergillus terreus Gwq-48 with anti-influenza A viral (H1N1) activity” (Bioorg Med Chem Lett, 2013).

A short description of data set [1]: Cytotoxicity against MDCK cells assessed as cell viability after 72 hrs by MTT assay. Type of data set: cell-based, Canis lupus familiaris. As to conditions: dog. (Tetrazolium assays rely on reduction of a dye to a coloured formazan, in cell work by metabolically active cells.)
The nature of data set [2]: Cytotoxicity against human A549 cells assessed as cell viability after 72 hrs by MTT assay. Type of data set: cell-based.
In another data set the test system is Influenza A virus. Nature of the data set: microbe, parasite or virus in culture. Particulars: A/Puerto Rico/8/1934(H1N1), MDCK, 48 h.
The target in data set [3] is Neuraminidase (Influenza A virus (A/Puerto Rico/8/1934(H1N1))) (UniProt P03468). As to the kind of experiment: Inhibition of inactivated Influenza A virus (A/Puerto Rico/8/1934(H1N1)) neuraminidase using MUNANA as substrate at 100 ug/mL incubated for 60 mins prior to substrate addition measured after 45 mins by fluorescence assay relative to control.
Neuraminidase (Influenza A virus (A/Puerto Rico/8/1934(H1N1))), sequence (P03468 whole entry): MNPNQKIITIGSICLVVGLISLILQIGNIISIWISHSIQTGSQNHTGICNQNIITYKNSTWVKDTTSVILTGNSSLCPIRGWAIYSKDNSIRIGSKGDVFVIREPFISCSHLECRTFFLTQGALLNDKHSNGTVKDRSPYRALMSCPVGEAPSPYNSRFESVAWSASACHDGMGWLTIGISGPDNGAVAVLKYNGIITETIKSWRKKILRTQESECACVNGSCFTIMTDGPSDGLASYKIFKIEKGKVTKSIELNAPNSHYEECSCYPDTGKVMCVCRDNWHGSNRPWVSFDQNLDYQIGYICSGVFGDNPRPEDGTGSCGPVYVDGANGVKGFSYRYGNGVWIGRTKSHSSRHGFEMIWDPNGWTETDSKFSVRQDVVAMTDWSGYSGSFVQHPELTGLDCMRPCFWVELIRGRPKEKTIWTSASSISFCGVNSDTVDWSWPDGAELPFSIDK
The target is the same in data set [4]. Nature of the data set: (§1) Inhibition of inactivated Influenza A virus (A/Puerto Rico/8/1934(H1N1)) neuraminidase using MUNANA as substrate incubated for 60 mins prior to substrate addition measured after 45 mins by fluorescence assay.
Data set [5] deals with Neuraminidase (Influenza A virus (A/Puerto Rico/8/1934(H1N1)), UniProt P03468). The data set is described as §1.
Neuraminidase (Influenza A virus (A/Puerto Rico/8/1934(H1N1)), UniProt P03468), sequence (P03468 whole entry): as above

Turning to `O=C1O/C(=C\c2ccc(O)cc2)C(O)=C1c1ccc(O)cc1` [ASPULVINONE E], the CC50 at 72 h in data set [1] and in data set [2] was above 250 µg/mL each time. The same compound had an IC50 in the data set with Influenza A virus of 56.9 µg/mL (≈ 192 µM).

With `O=C1O/C(=C/c2ccc(O)cc2)C(O)=C1c1ccc(O)cc1` [ISOASPULVINONE E], the figures for the inhibition in data set [3] and in data set [4] were 60% and “Dose-dependent effect”, respectively. The CC50 at 72 h in data set [1] and in data set [2] was above 250 µg/mL each time. For the same compound, the IC50 in data set [5] is 210 µM; in the data set on Influenza A virus, 32.3 µg/mL (≈ 109 µM).

For `O=C1O/C(=C(/C(=O)O)c2ccccc2)C(O)=C1c1ccccc1` [PULVIC ACID], the CC50 at 72 h in data set [1] and in data set [2] was above 250 µg/mL each time. This compound also had an IC50 in the data set with Influenza A virus of 29.1 µg/mL (≈ 94.4 µM).

As to `CC(=O)N[C@H]1[C@H]([C@H](O)[C@H](O)CO)OC(C(=O)O)=C[C@@H]1NC(=N)N` [ZANAMIVIR], it took 0.0284 µg/mL (≈ 0.0855 µM) to reach half-maximal inhibition in the data set on Influenza A virus (IC50).
